The values that follow come from ChEMBL document CHEMBL5370636, “Asteriquinones from Aspergillus sp. GZWMJZ-258 and Their Derivatives” (J Nat Prod, 2023).

Data set [1] is described as follows: Cytotoxicity against human L02 cells assessed as cell growth inhibition incubated for 72 hrs by Cell Titer-Glo assay.
Data set [2] in a line: Selectivity index, ratio of IC50 for human L02 cells to IC50 for human MV4-11 cells. The following applies: L02 cells and MV4-11 cells.
Data set [3] concerns MV4-11. Kind of data set: Cytotoxicity against human MV4-11 cells assessed as cell growth inhibition incubated for 72 hrs by Cell Titer-Glo assay. In kind it is functional, cell-based. The following applies: MV4-11, 72 h. On the technique in general: ATP-based viability assays read luminescence as a measure of living cells.
In data set [4] the test system is MV4-11. Put plainly: Induction of cell cycle arrest in human MV4-11 cells assessed as accumulation of cells at S phase at 0.1 uM incubated for 24 hrs by PI staining based flow cytometry (reference value: 27.58 %). The format is functional. Background: Flow cytometry measures light scatter and fluorescence of single cells or particles in a stream.
For data set [5], the system named is MV4-11. Kind of data set: Induction of apoptosis in human MV4-11 cells assessed as necrotic cells at 0.1 uM incubated for 24 hrs by Annexin V-FITC/PI staining based flow cytometry (reference value: 0.05 to 0.24 %). In kind it is functional.
The subject of data set [6] is MV4-11. Kind of data set: Induction of apoptosis in human MV4-11 cells assessed as late apoptotic cells at 0.1 uM incubated for 24 hrs by Annexin V-FITC/PI staining based flow cytometry (reference value: 0.53 to 1.03 %). In kind it is functional.
The test system of data set [7] is MV4-11. Put plainly: Induction of apoptosis in human MV4-11 cells assessed as viable cells at 0.1 uM incubated for 24 hrs by Annexin V-FITC/PI staining based flow cytometry (reference value: 98.58 to 99.04%). The conditions noted are these: read-out: Activity. The format is functional.
The test system of data set [8] is MV4-11. Put plainly: Induction of apoptosis in human MV4-11 cells assessed as early apoptotic cells at 0.1 uM incubated for 24 hrs by Annexin V-FITC/PI staining based flow cytometry (reference value: 0.015 to 0.39 %). The format is functional.
Data set [9] has as its system MV4-11. Kind of data set: Downregulation of FLT-3 protein expression in human MV4-11 cells incubated for 24 hrs by Western blot analysis. The format is functional, cell-based. The following applies: dose 100-400 nM.
For data set [10], the system named is MV4-11. Put plainly: Induction of cell cycle arrest in human MV4-11 cells assessed as accumulation of cells at G2/M phase at 0.1 uM incubated for 24 hrs by PI staining based flow cytometry (reference value: 18.56 %). The format is functional.
For data set [11], the system named is MV4-11. Put plainly: Induction of cell cycle arrest in human MV4-11 cells assessed as accumulation of cells at G0/G1 phase at 0.1 uM incubated for 24 hrs by PI staining based flow cytometry (reference value: 57.44 %). In kind it is functional.

As to `COc1c(OC)c(-c2cn(CCN3CCOCC3)c3ccccc23)c(OC)c(OC)c1-c1c[nH]c2ccccc12`, in data set [1], the IC50 at 72 h was greater than 100 µM. Also, the selectivity ratio in data set [2] was greater than 210. Besides, the IC50 in the data set with MV4-11 [3] is 0.48 µM.
The like results for `COc1c(OC)c(-c2c[nH]c3ccc(OCCN4CCOCC4)cc23)c(OC)c(OC)c1-c1c[nH]c2ccccc12` were, in that order, greater than 100 µM, greater than 220 and 0.45 µM.
As for `COc1c(OC)c(-c2c[nH]c3ccc(O)cc23)c(OC)c(OC)c1-c1c[nH]c2ccccc12`, the IC50 at 72 h in data set [1] was greater than 100 µM. Besides, the selectivity ratio in data set [2] was greater than 8. Further, the IC50 in the data set with MV4-11 [3] was found to be 12 µM.
For `COc1ccc2[nH]cc(-c3c(OC)c(OC)c(-c4c[nH]c5ccc(O)cc45)c(OC)c3OC)c2c1`, the IC50 at 72 h in data set [1] was greater than 100 µM. Further, the selectivity ratio in data set [2] was greater than 75. In addition, the IC50 in the data set on MV4-11 [3] is 1.3 µM.
Regarding `COc1c(OC)c(-c2c[nH]c3ccc(OCCO[C@@H]4O[C@H](CO)[C@@H](O)[C@H](O)[C@H]4O)cc23)c(OC)c(OC)c1-c1c[nH]c2ccccc12`, the Activity with MV4-11 [4] is 30.68%; in the data set with MV4-11 [5] it was 0%; in the data set on MV4-11 [6], 3.67%; in the data set on MV4-11 [8], 15.78%; with MV4-11 [9] it was “Dose-Dependent Effect”; in the data set with MV4-11 [10], 17.42%. The Activity in the data set with MV4-11 [11] is 52.91%. Moreover, the viability at 0.1 µM with MV4-11 [7] turned out to be 78%. Also, the IC50 at 72 h in data set [1] was greater than 100 µM. For the same molecule, the selectivity ratio in [2] was greater than 380. Further, in the data set on MV4-11 [3], the IC50 was determined as 0.26 µM.
Take `CCOc1ccc2[nH]cc(-c3c(OC)c(OC)c(-c4c[nH]c5ccccc45)c(OC)c3OC)c2c1`: the IC50 at 72 h in data set [1] is greater than 100 µM. Besides, the selectivity ratio in data set [2] was greater than 500. The IC50 in the data set on MV4-11 [3] worked out at 0.2 µM.
With `COc1c(OC)c(-c2c[nH]c3ccc(OCC(=O)c4ccccc4)cc23)c(OC)c(OC)c1-c1c[nH]c2ccccc12`, in data set [1], the IC50 at 72 h was greater than 100 µM. Moreover, the selectivity ratio in data set [2] was greater than 74. In addition, the IC50 with MV4-11 [3] is 1.3 µM.
For the molecule `COc1c(O)c(-c2c[nH]c3ccccc23)c2c(c1-c1c[nH]c3ccccc13)OC(C)(C)C=C2`, in [1], the IC50 at 72 h worked out at 11 µM. The selectivity ratio in data set [2] stood at 9. In addition, in the data set on MV4-11 [3], the half-inhibitory concentration (IC50) came out at 1.2 µM.
As to `COc1c(OC)c(-c2cn(C3CCCC3)c3ccccc23)c(OC)c(OC)c1-c1c[nH]c2ccccc12`, the IC50 at 72 h in data set [1] is greater than 100 µM. In addition, the selectivity ratio in [2] is greater than 120. The IC50 with MV4-11 [3] was found to be 0.84 µM.
The like results for `COc1ccc2[nH]cc(-c3c(OC)c(OC)c(-c4c[nH]c5ccccc45)c(OC)c3OC)c2c1` were, in that order, greater than 100 µM, greater than 15 and 6.5 µM.
On to `COc1c(O)c(-c2c[nH]c3ccccc23)c(CC=C(C)C)c(OC)c1-c1c[nH]c2ccccc12`, for which the IC50 at 72 h in data set [1] stood at 17 µM. Besides, in data set [2], the selectivity ratio is 9. Further, in the data set on MV4-11 [3], the IC50 was determined as 1.8 µM.
Turning to `COc1c(OC)c(-c2c[nH]c3ccccc23)c(OC)c(OC)c1-c1c[nH]c2ccccc12`, the IC50 at 72 h in [1] was greater than 100 µM. Besides, in [2], the selectivity ratio was greater than 17. Also, the IC50 in the data set with MV4-11 [3] turned out to be 5.9 µM.
With `COc1c(OC)c(-c2c[nH]c3ccc(OC4CCCC4)cc23)c(OC)c(OC)c1-c1c[nH]c2ccccc12`, the Activity was 36.06% in the data set with MV4-11 [4]; 0% with MV4-11 [5]; 4.36% in the data set with MV4-11 [6]; 19.09% in the data set with MV4-11 [8]; “Dose-Dependent Effect” with MV4-11 [9]; 15.55% in the data set on MV4-11 [10]. For the same molecule, the Activity with MV4-11 [11] stood at 49.99%. Moreover, the viability at 0.1 µM with MV4-11 [7] was found to be 74.7%. Also, in data set [1], the IC50 at 72 h is greater than 100 µM. Further, in [2], the selectivity ratio is greater than 710. Further, the IC50 in the data set on MV4-11 [3] was 0.14 µM.
Turning to `COc1c(OC)c(-c2c[nH]c3ccc(OCC(=O)c4ccc(Cl)c(Cl)c4)cc23)c(OC)c(OC)c1-c1c[nH]c2ccccc12`, in [1], the IC50 at 72 h is greater than 100 µM. Besides, the selectivity ratio in [2] is greater than 100. For the same molecule, the IC50 in the data set on MV4-11 [3] was determined as 0.99 µM.

In general, IC50 refers to the concentration at which inhibition is half-maximal.
